The values that follow are results of earlier work, collected in patent US20180272346A1, “MODULAR ORGAN MICROPHYSIOLOGICAL SYSTEM WITH MICROBIOME” (Massachusetts Institute of Technology, priority 2017, published 2018).

In series [1] the test system is immune-competent liver MPS (hepatocytes and Kupffer cells).
The conditions of series [2]: oral, in vivo; read-out: maximum measured plasma concentration, Cmax.
Series [3] deals with 7-way MPS platform (gut, liver and other MPSs).
Series [4] relates to human hepatocytes and kupffer cells co-culture.
The test system of series [5] is immune-competent gut MPS (Caco2, HT29-MTX, dendritic cells).
Series [6] relates to immune-competent gut-liver interacted MPS. The conditions noted are these: tolcapone added to gut MPS ("oral").

As to `O=C(O)Cc1ccccc1Nc1c(Cl)cccc1Cl` [Diclofenac, diclofenac], the cell death entry in series [1] is listed as “minimal”. Further, the “function and cellular death” value in the series on endometrium MPS is given as “loss of function correlating with cellular death”. In series [2], the Cmax is 2 to 6 µM. For the same compound, in series [3], the “absorption and distribution across MPS compartments” value is given as “absorbed across the gut epithelial barrier”. Besides, in series [3] (diclofenac added to apical side of gut MPS, estimated), the “unbound intrinsic clearance (CL_int(u))” value was 13.90 µL/min. The “fraction of clearance towards formation of the 4-OH-DCF metabolite” value in series [3] (estimated) was “approximately 19%”.

For `C[C@]12CCC(=O)C=C1CC[C@@H]1[C@@H]2[C@@H](O)C[C@@]2(C)[C@H]1CC[C@]2(O)C(=O)CO` [Hydrocortisone (cortisol), Hydrocortisone], in series [4] (cocultured liver MPS), the differentiated function entry is listed as “enhanced” and the inflammatory response entry is recorded as “suppressed”. The CYP450 activity result in series [4] (cultures up to 21 days) is “sensitive to hydrocortisone levels”.

For `Cc1ccc(C(=O)c2cc(O)c(O)c([N+](=O)[O-])c2)cc1` [Tolcapone], in series [1], the cell death entry is on record as “caused cell death” and the mitochondrial activity entry is “decreased”. Also, in series [5], the cell death result was “severe cellular death” and the epithelial function entry is on record as “complete loss of epithelial function”. Further, the “function and cellular death” value with endometrium MPS is “loss of function correlating with cellular death”. In series [6], the “MPS-specific cell death markers” value was “suffered from MPS-specific cell death markers”; the “generic cell death marker” value is given as “insensitive”; the “gut and liver MPS function” value is on record as “MPS-specific loss of function”.

With “Lipopolysaccharide [Lipopolysaccharide (LPS)]”, in series [4] (hepatocyte-Kupffer co-culture), the “lowest LPS stimulus the co-cultures were responsive to” value was 0.01 µg/mL.
